# Read-outs that look alike come from different tables or passages of the source.
# Key:
# PDE1A3 = biological target: T1, PDE1A3 (Homo sapiens, UniProt P54750); experiment: PDE1 inhibition; format: biochemical; settings: standard: 8-methoxymethyl-IBMX
# T1 construct: made in house; host or cells: baculoviral expression system
# PDE7A1 = biological target: T2, PDE7A1 (Homo sapiens, UniProt Q13946); experiment: PDE7 inhibition; format: biochemical; settings: standard: BRL-50481; read-out: IC50 PDE7A1
# T2 construct: made in house; host or cells: baculoviral expression system
# [1] = system: TNF-α secretion from peripheral blood mononuclear cells (PBMCs); experiment: TNF-α secretion from PBMCs stimulated by LPS; format: cell-based, human; settings: PBMC
# From the text: (§1) Compounds were screened by a biochemical assay against PDE4 enzyme and cell-based cytokine release assays using PBMCs stimulated by LPS or phytohemagglutinin (PHA).
# [2] = system: IFN-γ secretion from PBMCs; experiment: IFN-γ secretion from PBMCs stimulated with PHA; format: cell-based, human; settings: PBMC
# From the text: as §1
# hERG-channel = hERG-channel (Homo sapiens, UniProt Q12809); experiment: hERG-channel block; format: biochemical; settings: in vitro screening
# [3] = system: T3, phosphodiesterase 4 (PDE4) enzyme derived from human U937 cells; experiment: PDE4 enzyme activity (enzyme derived from human U937 cells); format: biochemical; settings: biochemical assay, PDE4 enzyme derived from human U937 cells; read-out: PDE4 IC50
# T3 construct: PDE4 IC50; other: biochemical assay, PDE4 enzyme derived from human U937 cells; other: PDE4 in human U937 cells
# From the text: The structure-activity relationships of novel boron-containing anti-inflammatory agents was investigated.
# as §1
# BALB/c male mice = experiment: Oxazolone Induced Mouse Ear Edema Model; format: in vivo
# Method: 2. In Vivo Anti-Inflammation Activity in Oxazolone Induced Mouse Ear Edema Model
# Groups of 5 BALB/c male mice weighing 23±2 g were used. The preshaved abdomens of test animals were sensitized by application of 100 μl, of 1.5% oxazolone solution dissolved in acetone. Seven days after the initial sensitization, test substances, as well as vehicle (acetone:ethanol/1:1, 20 μL/ear) were each administered topically to the anterior and posterior surfaces of the right ear 30 minutes before, and 15 minutes after, challenge by a second application of oxazolone (1% in acetone, […]) via topical route. As a positive control, indomethacin (0.3 mg/ear×2) was administered topically using the same treatment regime as for the test compounds. Twenty-four hours after the second application of oxazolone, the ear thickness of each mouse was measured with a Dyer model micrometer gauge. A 30 percent or more inhibition in ear swelling relative to the vehicle control was considered significant and indicated possible anti-inflammatory activity.
# [4] = system: CD-1 (Crl.) derived male mice; experiment: Phorbol Ester Induced Mouse Ear Edema Model; format: in vivo; settings: topical, 6 h; for inhibition in vivo at 1 mg: 1 mg/ear × 2 topical
# In short: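 Test compounds in acetone:ethanol 1:1 were applied topically to both ears 30 min before and 15 min after PMA challenge; dexamethasone positive control followed the same schedule. Ear thickness was measured by micrometer 6 h after PMA, and percent inhibition was calculated from ear-thickness increase versus vehicle controls.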
# in vivo = settings: shrew
# HepG2 = experiment: Cytotoxicity against HepG2 cell line; format: cell-based
# p450 enzyme = p450 enzyme inhibition screen; format: in vitro ADME; settings: in vitro screening
# PMA induced ear edema = PMA induced ear edema (acute skin irritation model); format: in vivo; settings: for inhibition of PMA induced ear edema: acetone/ethanol vehicle, 5% C27, 15% dexamethasone, p<0.01
# [5] = system: IL-2 secretion from PBMCs; experiment: IL-2 secretion from PBMCs stimulated with PHA; format: cell-based, human; settings: PBMC
# From the text: as §1
# [6] = Pharmacokinetic analysis in the rat; format: in vivo
# L929 = experiment: Cytotoxicity against L929 cell line; format: cell-based
# Göttingen minipig = experiment: Dermal application on the Göttingen minipig (plasma level, dermal irritation); format: in vivo; settings: 5% C27 ointment or cream, after 24 hours of exposure
# [7] = as above; format: in vivo; settings: Göttingen, minipig, plasma, topical, 5 % ointment or cream over 15% body surface area; dermal 5% C27 ointment or cream over 15% body surface area; LLOQ=0.01 μg/ml; read-out: plasma levels of the compound
# [8] = system: oxazolone induced ear swelling; experiment: Oxazolone induced ear swelling (allergic contact dermatitis model); format: in vivo; settings: topical
# [9] = system: IL-5 production by human PBMCs; experiment: IL-5 production by LPS- or PHA-stimulated PBMCs; format: cell-based; settings: PBMC; LPS- and PHA-induced cytokine production by human PBMCs; read-out: IC50 IL-5 (Th2 cytokines)
# [10] = system: IL-1β production by human PBMCs; experiment: IL-1β production by LPS- or PHA-stimulated PBMCs; format: cell-based; settings: PBMC; LPS- and PHA-induced cytokine production by human PBMCs; read-out: IC50 IL-1β (pro-inflammatory cytokines)
# [11] = system: IL-10 production by human PBMCs; experiment: IL-10 production by LPS- or PHA-stimulated PBMCs; format: cell-based; settings: PBMC; LPS- and PHA-induced cytokine production by human PBMCs; read-out: IC50 IL-10 (Th2 cytokines)
# PDE3 Cat = system: T4, PDE3 Cat; experiment: PDE3 inhibition; format: biochemical; settings: standard: Cilostazol
# T4 construct: Recombinant human PDE enzymes were expressed in a baculoviral system.; PDE isoforms tested include
# IL-2 = experiment: Cytokine assay, IL-2 release from PBMC; format: cell-based; settings: human PBMC, 20 ug/mL PHA, supernatant at 24 hours
# In short: (§2)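 First, frozen human PBMC are thawed, pelleted and taken up in RPMI 1640 containing 10% FBS. Next, compound serially diluted from a 10 mM DMSO stock is added at 10, 1, 0.1 or 0.01 μM (n=3). Finally, released cytokine is quantified.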
# [12] = system: T5, PDE4 partially purified from human U-937 myeloid leukemia cells; experiment: PDE4 Assay (enzyme from U-937 cells, [3H]cAMP); format: biochemical; settings: PDE4 from U-937 cells, Tris buffer pH 7.5, 20 minutes at 25° C.
# T5 construct: PDE4 partially purified from human U-937 myeloid leukemia cells was used
# TNF-α = experiment: Cytokine assay, TNF-α release from PBMC; format: cell-based; settings: Homo sapiens, PBMC, 24 h, 1 μg/mL LPS, supernatant at 24 hours
# In short: as §2
# IFN-γ = experiment: Cytokine assay, IFN-γ release from PBMC; format: cell-based; settings: human PBMC, 20 ug/mL PHA, supernatant at 24 hours
# In short: as §2
# IL-5 = experiment: Cytokine assay, IL-5 release from PBMC; format: cell-based; settings: human PBMC, 20 ug/mL PHA, supernatant at 48 hours
# In short: as §2
# IL-10 = experiment: Cytokine assay, IL-10 release from PBMC; format: cell-based; settings: human PBMC, 20 ug/mL PHA, supernatant at 48 hours
# In short: as §2
# [13] = vehicle not given, ear swelling 6 hours after PMA
# [14] = LPS- and PHA-induced cytokine production by human PBMCs, read-out: IC50 TNFα (pro-inflammatory cytokines)
# [15] = LPS- and PHA-induced cytokine production by human PBMCs, read-out: IC50 IFNg (Th1 cytokines)
# [16] = LPS- and PHA-induced cytokine production by human PBMCs, read-out: IC50 IL-2 (Th1 cytokines)
# T1 sequence (P54750 whole entry): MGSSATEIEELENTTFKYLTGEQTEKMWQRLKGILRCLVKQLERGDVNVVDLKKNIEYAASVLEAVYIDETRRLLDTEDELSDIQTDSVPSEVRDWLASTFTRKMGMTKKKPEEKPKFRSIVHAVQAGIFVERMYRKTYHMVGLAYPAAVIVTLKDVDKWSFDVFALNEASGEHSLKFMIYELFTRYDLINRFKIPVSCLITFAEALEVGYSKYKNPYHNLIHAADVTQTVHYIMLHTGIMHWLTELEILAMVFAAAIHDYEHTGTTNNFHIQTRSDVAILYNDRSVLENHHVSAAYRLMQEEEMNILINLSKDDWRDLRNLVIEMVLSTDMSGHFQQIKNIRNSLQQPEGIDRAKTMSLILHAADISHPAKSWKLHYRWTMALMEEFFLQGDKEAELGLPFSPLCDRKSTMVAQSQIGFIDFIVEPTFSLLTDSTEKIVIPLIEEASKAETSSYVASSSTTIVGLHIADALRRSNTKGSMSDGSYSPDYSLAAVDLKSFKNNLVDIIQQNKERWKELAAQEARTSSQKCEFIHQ
# hERG-channel, sequence (Q12809 whole entry): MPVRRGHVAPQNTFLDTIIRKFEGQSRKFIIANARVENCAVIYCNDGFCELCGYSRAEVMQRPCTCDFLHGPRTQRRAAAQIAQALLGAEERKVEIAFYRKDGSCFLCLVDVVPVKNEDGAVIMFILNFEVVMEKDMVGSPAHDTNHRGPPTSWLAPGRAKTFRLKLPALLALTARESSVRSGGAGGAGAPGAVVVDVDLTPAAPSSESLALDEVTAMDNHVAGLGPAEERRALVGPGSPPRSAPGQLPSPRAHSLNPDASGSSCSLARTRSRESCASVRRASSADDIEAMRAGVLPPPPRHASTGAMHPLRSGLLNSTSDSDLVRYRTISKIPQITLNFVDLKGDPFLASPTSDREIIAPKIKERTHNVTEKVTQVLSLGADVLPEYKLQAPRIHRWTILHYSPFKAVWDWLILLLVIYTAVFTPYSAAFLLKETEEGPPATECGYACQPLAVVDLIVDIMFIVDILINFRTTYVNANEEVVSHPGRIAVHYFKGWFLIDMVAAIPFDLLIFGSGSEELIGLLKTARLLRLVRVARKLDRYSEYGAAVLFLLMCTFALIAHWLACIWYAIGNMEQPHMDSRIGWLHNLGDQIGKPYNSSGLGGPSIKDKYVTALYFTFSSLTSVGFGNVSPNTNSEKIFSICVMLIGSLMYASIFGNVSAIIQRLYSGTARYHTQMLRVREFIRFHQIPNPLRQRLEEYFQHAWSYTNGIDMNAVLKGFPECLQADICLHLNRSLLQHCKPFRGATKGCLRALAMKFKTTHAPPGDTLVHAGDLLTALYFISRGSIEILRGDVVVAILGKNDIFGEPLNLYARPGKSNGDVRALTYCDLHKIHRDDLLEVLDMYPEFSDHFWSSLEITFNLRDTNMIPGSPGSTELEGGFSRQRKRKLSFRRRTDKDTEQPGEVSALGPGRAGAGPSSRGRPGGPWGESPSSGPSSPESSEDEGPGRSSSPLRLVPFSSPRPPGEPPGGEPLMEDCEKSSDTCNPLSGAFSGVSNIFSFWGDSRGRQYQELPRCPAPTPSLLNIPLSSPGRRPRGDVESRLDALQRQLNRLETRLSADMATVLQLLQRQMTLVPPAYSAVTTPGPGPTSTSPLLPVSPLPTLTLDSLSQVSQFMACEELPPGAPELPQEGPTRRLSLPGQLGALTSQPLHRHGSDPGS
# T2 sequence (Q13946 whole entry): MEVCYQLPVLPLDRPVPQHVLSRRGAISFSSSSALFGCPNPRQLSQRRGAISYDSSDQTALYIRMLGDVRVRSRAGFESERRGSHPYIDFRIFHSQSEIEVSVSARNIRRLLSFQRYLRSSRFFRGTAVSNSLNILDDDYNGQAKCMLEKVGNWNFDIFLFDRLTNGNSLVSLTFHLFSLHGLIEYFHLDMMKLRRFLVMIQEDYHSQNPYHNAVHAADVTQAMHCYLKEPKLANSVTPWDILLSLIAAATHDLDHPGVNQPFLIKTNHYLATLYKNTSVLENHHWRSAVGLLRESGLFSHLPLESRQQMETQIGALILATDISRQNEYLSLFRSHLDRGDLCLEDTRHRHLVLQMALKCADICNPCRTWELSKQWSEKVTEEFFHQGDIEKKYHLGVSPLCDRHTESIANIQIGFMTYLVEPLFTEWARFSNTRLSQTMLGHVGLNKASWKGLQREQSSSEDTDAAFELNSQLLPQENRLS
compound,measurement,setting,value
"COCc1nc2c([nH]1)c(=O)n(C)c(=O)n2CC(C)C [8-methoxymethyl-IBMX, reference compound]",IC50,PDE1A3,1 to 10 µM
"Cc1ccc([N+](=O)[O-])cc1S(=O)(=O)N(C)C [BRL-50481, reference compound]",IC50,PDE7A1,1 to 10 µM
"N#Cc1ccc(Oc2ccc3c(c2)COB3O)cc1C#N [C27, 5-(3,4-Dicyanophenoxy)-1,3-dihydro-1-hydroxy-2,1-benzoxaborole]",IC50,"[1]; Homo sapiens, PBMCs stimulated by LPS, read-out: TNF-α secretion IC50",0.16 µM
same,IC50,"[2]; Homo sapiens, PBMCs stimulated with PHA, read-out: IFN-γ secretion IC50",0.22 µM
same,hERG inhibition,hERG-channel,no significant
same,IC50,[3],0.06 µM
same,inhibition in vivo at 3 mg,"BALB/c male mice; topical, 24 h",40 to 60%
same,inhibition in vivo at 1 mg,[4]; [13],60 to 90%
same,inhibition in vivo at 3 mg,"[4]; 3 mg/ear × 2 topical, vehicle not given, ear swelling 6 hours after PMA",60 to 90%
same,Cmax,in vivo,12400 ng/mL
same,cytotoxicity,HepG2,> 100 micro M
same,p450 enzyme inhibition,p450 enzyme,no significant
same,inhibition of PMA induced ear edema,PMA induced ear edema,82%
same,lowest active concentration in PMA ear edema model,PMA induced ear edema; ointment vehicle,0.01%
same,IC50,"[5]; Homo sapiens, PBMCs stimulated with PHA, read-out: IL-2 secretion IC50",0.18 µM
same,mean plasma residence time,[6]; intravenous dosing at 20 mg/kg,0.64 h
same,bioavailability,"[6]; plasma, oral dosing at 100 mg/kg",7%
same,cytotoxicity,L929,> 100 micro M
same,dermal irritation,Göttingen minipig,no dermal irritation
same,concentration at 24 h,[7],< 10 ng/mL
same,inhibition of oxazolone induced ear swelling,[8],significantly inhibits
COc1ccc([C@]2(C#N)CC[C@@H](C(=O)O)CC2)cc1OC1CCCC1 [Cilomilast],IC50,[1]; [14],< 1 µM
same,IC50,[2]; [15],< 1 µM
same,IC50,[9],< 1 µM
same,IC50,[10],> 30 µM
same,IC50,[5]; [16],< 1 µM
same,IC50,[11],1 to 10 µM
"O=C1CCc2cc(OCCCCc3nnnn3C3CCCCC3)ccc2N1 [Cilostazol, cilostazol, reference compound]",IC50,PDE3 Cat,1 to 10 µM
"COC(=O)c1ccc(Oc2ccc3c(c2)COB3O)nc1C(=O)OC [D44, 6-(1-Hydroxy-1,3-dihydro-benzo[c][1,2]oxaborol-5-yloxy)-pyridine-2,3-dicarboxylic acid dimethyl ester]",melting point,,67.5 to 69.2 °C
same,IC50,IL-2,< 1 µM
same,IC50,[12],< 1 µM
same,IC50,TNF-α,< 1 µM
same,IC50,IFN-γ,< 1 µM
"CCOC(=O)c1nc(Oc2ccc3c(c2)COB3O)ccc1C#N [D45, 3-Cyano-6-(1-hydroxy-1,3-dihydro-benzo[c][1,2]oxaborol-5-yloxy)-pyridine-2-carboxylic acid ethyl ester]",melting point,,204 to 206 °C
same,IC50,IL-2,< 1 µM
same,IC50,[12],< 1 µM
same,IC50,TNF-α,< 1 µM
same,IC50,IFN-γ,< 1 µM
"CCOC(=O)c1ccc(Oc2ccc3c(c2)COB3O)nc1 [D60, Ethyl 6-(1-hydroxy-1,3-dihydrobenzo[c][1,2]oxaborol-5-yloxy)nicotinate]",melting point,,110 to 113 °C
same,IC50,IL-2,< 1 µM
same,IC50,[12],< 1 µM
same,IC50,TNF-α,< 1 µM
same,inhibition in vivo at 0.1 mg,"BALB/c male mice; 0.1 mg/ear × 2 topical, Acetone:Ethanol/1:1, ear thickness 24 hours after second oxazolone application",< 20%
same,inhibition in vivo at 0.2 mg,"BALB/c male mice; 0.2 mg/ear × 2 topical, Acetone:Ethanol/1:1, ear thickness 24 hours after second oxazolone application",< 20%
same,inhibition in vivo at 1 mg,"BALB/c male mice; 1 mg/ear × 2 topical, Acetone:Ethanol/1:1, ear thickness 24 hours after second oxazolone application",< 20%
same,inhibition in vivo at 0.1 mg,"[4]; 0.1 mg/ear × 2 topical, Acetone:Ethanol/1:1, ear swelling 6 hours after PMA",< 30%
same,inhibition in vivo at 0.2 mg,"[4]; 0.2 mg/ear × 2 topical, Acetone:Ethanol/1:1, ear swelling 6 hours after PMA",< 30%
same,inhibition in vivo at 1 mg,"[4]; Acetone:Ethanol/1:1, ear swelling 6 hours after PMA",30 to 60%
same,IC50,IL-5,< 1 µM
same,IC50,IL-10,< 1 µM
same,IC50,IFN-γ,< 1 µM
"COc1ccc(C2CNC(=O)C2)cc1OC1CCCC1 (stereo not shown) [Rolipram, rolipram, reference compound]",IC50,[1]; [14],< 1 µM
same,IC50,[2]; [15],< 1 µM
same,IC50,IL-2,< 1 µM
same,IC50,TNF-α,< 1 µM
same,IC50,[9],< 1 µM
same,IC50,IL-5,< 1 µM
same,IC50,[10],> 30 µM
same,IC50,IL-10,< 1 µM
same,IC50,[5]; [16],< 1 µM
same,IC50,[11],< 1 µM
same,IC50,IFN-γ,< 1 µM
"C[C@@H]1C[C@H]2[C@@H]3CCC4=CC(=O)C=C[C@]4(C)[C@@]3(F)[C@@H](O)C[C@]2(C)[C@@]1(O)C(=O)CO [dexamethasone, reference compound]",inhibition in vivo at 1 mg,[4]; [13],60 to 90%
same,inhibition of PMA induced ear edema,PMA induced ear edema,73%

# Reference: US9012431B2, “Boron-containing small molecules as anti-inflammatory agents” (Anacor Pharmaceuticals, Inc., priority 2008, dated 2015)
